In the Kinase Knowledgebase extract (Sharma et al. 2016):

Each compound was assayed against PIK3CG (human) (UniProt P48736) (assay: Assessment of PIK3CG Kinase Activity).
Chain of PIK3CG (human) (P48736 whole entry, looked up): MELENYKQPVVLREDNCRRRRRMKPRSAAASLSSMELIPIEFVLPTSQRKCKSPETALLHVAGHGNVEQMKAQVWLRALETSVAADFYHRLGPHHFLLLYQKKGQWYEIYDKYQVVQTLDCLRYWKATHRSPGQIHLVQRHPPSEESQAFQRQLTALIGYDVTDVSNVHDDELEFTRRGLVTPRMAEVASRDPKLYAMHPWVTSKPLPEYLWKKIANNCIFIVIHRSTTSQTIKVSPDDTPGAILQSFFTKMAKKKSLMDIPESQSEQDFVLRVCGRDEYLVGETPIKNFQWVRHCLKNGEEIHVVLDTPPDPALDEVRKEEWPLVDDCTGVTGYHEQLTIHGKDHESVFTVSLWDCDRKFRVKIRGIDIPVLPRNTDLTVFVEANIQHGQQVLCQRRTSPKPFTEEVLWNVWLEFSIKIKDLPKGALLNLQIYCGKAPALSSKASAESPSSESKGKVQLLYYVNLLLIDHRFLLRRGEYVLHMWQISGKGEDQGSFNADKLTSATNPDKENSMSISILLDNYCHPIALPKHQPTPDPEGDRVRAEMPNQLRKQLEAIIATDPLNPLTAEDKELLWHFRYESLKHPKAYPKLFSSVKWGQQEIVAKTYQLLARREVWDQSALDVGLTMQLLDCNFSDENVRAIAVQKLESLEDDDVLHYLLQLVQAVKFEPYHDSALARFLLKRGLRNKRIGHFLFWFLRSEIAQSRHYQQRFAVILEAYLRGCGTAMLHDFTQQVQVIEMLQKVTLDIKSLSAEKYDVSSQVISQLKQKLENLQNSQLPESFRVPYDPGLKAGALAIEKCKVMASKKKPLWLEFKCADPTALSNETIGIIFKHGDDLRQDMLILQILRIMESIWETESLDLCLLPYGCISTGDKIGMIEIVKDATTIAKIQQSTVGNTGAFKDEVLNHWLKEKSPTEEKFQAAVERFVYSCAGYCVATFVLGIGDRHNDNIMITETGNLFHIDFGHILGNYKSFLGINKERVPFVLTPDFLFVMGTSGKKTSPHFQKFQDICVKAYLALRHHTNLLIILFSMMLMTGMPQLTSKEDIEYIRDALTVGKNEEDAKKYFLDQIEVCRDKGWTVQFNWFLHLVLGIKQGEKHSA

Structure (SMILES) | IC50 [nM]
CC(=O)Nc1nc2c(s1)-c1c(cnn1-c1ccc(CC(=O)NC3CCS(=O)(=O)C3)cc1)CC2 (centres undefined) | < 800
CC(=O)Nc1nc2c(s1)-c1nn(-c3ccccc3)c(-c3cn(C)cn3)c1CC2 | < 800
CC(=O)Nc1nc2c(s1)-c1c(cnn1-c1ccccc1Br)CC2 | < 800
CC(=O)Nc1nc2c(s1)-c1c(cnn1-c1cc(Cl)ccc1Cl)CC2 | < 800
CC(=O)Nc1nc2c(s1)-c1nn(C(C)=O)cc1CC2 | < 800
COc1ccccc1-n1nc(-c2ccccc2)c2c1-c1sc(NC(C)=O)nc1CC2 | < 800
CC(=O)Nc1nc2c(s1)-c1c(cnn1-c1ccc(C(=O)N[C@H]3CC[C@@H](N4CCC(C)(C)CC4)CC3)cc1)CC2 | < 800
CC(=O)Nc1nc2c(s1)-c1c(cnn1-c1ccc(CC(=O)N[C@@H]3CCOC3=O)cc1)CC2 | < 800
CC(=O)Nc1nc2c(s1)-c1c(cnn1-c1ccc(C(=O)N[C@@H](Cc3cccnc3)C(N)=O)cc1Cl)CC2 | < 800
CCCN(CC)C(=O)Cc1ccc(-n2ncc3c2-c2sc(NC(C)=O)nc2CC3)cc1 | < 800
CC(=O)Nc1nc2c(s1)-c1c(cnn1-c1ccc(CC(=O)N(C)CC(C)O)cc1)CC2 (centres undefined) | < 800
CC(=O)Nc1nc2c(s1)-c1c(cnn1C(=O)c1ccccc1Cl)CC2 | < 800
CC(=O)Nc1nc2c(s1)-c1c(c([C@H]3CCCO3)nn1-c1ccc(C(=O)N(C)Cc3ccncc3)cc1Cl)CC2 | < 800
CC(=O)Nc1nc2c(s1)-c1c(cnn1-c1cccc(Br)c1)CC2 | < 800
CC(=O)Nc1nc2c(s1)-c1c(cnn1-c1cccc(C)c1C)CC2 | < 800
CC(=O)Nc1nc2c(s1)-c1c(cnn1-c1ccc(CC(=O)NCc3nc4ccccc4n3C)cc1)CC2 | < 800
CCCn1ncc2c1-c1sc(NC(C)=O)nc1CC2 | < 800
NCC(=O)Nc1nc2c(s1)-c1c(cnn1-c1ccccc1)CC2 | < 800
CC(=O)Nc1nc2c(s1)-c1c(cnn1C1C=CCCC1)CC2 (centres undefined) | < 800
CC(=O)Nc1nc2c(s1)-c1c(c(C(=O)N(C)C)nn1-c1ccccc1Cl)CC2 | < 800
CC(=O)Nc1nc2c(s1)-c1c(cnn1-c1ccc(C(=O)NCCCC(N)=O)cc1Cl)CC2 | < 800
CC(=O)Nc1nc2c(s1)-c1c(cnn1-c1ccc(C(=O)N3CCC(NC(=O)c4ccccc4)CC3)cc1)CC2 | < 800
CC(=O)Nc1nc2c(s1)-c1c(cnn1-c1ncccn1)CC2 | < 800
CC(=O)Nc1nc2c(s1)-c1c(cnn1-c1c(Cl)cccc1Cl)C2 | < 800
O=C(Nc1nc2c(s1)-c1nc(-c3ccccc3)ncc1CC2)N1CCCCC1 | < 800

Structure (SMILES) | IC50 [nM]
C=C1CCN(C(=O)c2ccc(-n3ncc4c3-c3sc(NC(C)=O)nc3CC4)cc2)CC1 | < 800
CC(=O)Nc1nc2c(s1)-c1c(cnn1-c1c(Cl)cccc1Cl)CC2 | < 800
CC(=O)Nc1nc2c(s1)-c1c(cnn1-c1ccc(C(=O)Nc3nc4ccccc4[nH]3)cc1)CC2 | < 800
CC(=O)Nc1nc2c(s1)-c1c(c(C(F)(F)F)nn1-c1ccccc1)CC2 | < 800
CC(=O)Nc1nc2c(s1)-c1c(cnn1-c1ccc(S(=O)(=O)O)cc1)CC2 | < 800
CC(=O)Nc1nc2c(s1)-c1c(cnn1-c1ccccc1C(F)(F)F)C2 | < 800
CC(=O)Nc1nc2c(s1)-c1c(cnn1-c1ccc(C(=O)N[C@H]3CC[C@H](N)CC3)cc1)CC2 | < 800
CC(=O)Nc1nc2c(s1)-c1c(cnn1-c1ccc(C(=O)N3CCC(N)CC3)cc1)CC2 | < 800
CCN(CCO)C(=O)c1ccc(-n2ncc3c2-c2sc(NC(C)=O)nc2CC3)cc1 | < 800
CC(=O)Nc1nc2c(s1)-c1c(cnn1-c1ccc(C(=O)N[C@H]3CC[C@@H](N4CCCCC4)CC3)cc1)CC2 | < 800
CC(=O)Nc1nc2c(s1)-c1nc(C3CC3)ncc1CC2 | < 800
COc1ccccc1-n1ncc2c1-c1sc(NC(C)=O)nc1CC2 | < 800
CC(=O)Nc1nc2c(s1)-c1c(c(-c3c[nH]cn3)nn1-c1ccccc1Cl)CC2 | < 800
CC(=O)Nc1nc2c(s1)-c1c(cnn1-c1ccc(CC(=O)N3CCN(c4ccncc4)CC3)cc1)CC2 | < 800
CC(=O)Nc1nc2c(s1)-c1c(c(C(=O)NCCO)nn1-c1ccccc1)CC2 | < 800
NC(=O)Nc1nc2c(s1)-c1c(cnn1-c1ccccc1)CC2 | < 800
CC(=O)Nc1nc2c(s1)-c1c(cnn1C(C)C)CC2 | < 800
CC(=O)Nc1nc2c(s1)-c1c(cnn1-c1ccc(C(=O)NCCC3CCCN3C)cc1)CC2 (centres undefined) | < 800
CC(=O)Nc1nc2c(s1)-c1nc(C(C)C)nc(O)c1CC2 | < 800
CC(=O)Nc1nc2c(s1)-c1c(c(-c3cn(C)cn3)nn1-c1ccccc1Cl)CC2 | < 800
CC(=O)Nc1nc2c(s1)-c1c(cnn1-c1cccc([N+](=O)[O-])c1)CC2 | < 800
CC(=O)Nc1nc2c(s1)-c1c(cnn1-c1ccc(C(=O)N(C)CC(=O)N3CCOCC3)cc1)CC2 | < 800
CC(=O)Nc1nc2c(s1)-c1c(cnn1-c1cccc(F)c1)CC2 | < 800
CC(=O)Nc1nc2c(s1)-c1c(cnn1-c1ccc(C(=O)N[C@@H](CC(=O)O)C(N)=O)cc1Cl)CC2 | < 800
CC(=O)Nc1nc2c(s1)-c1c(cnn1-c1ccc(C(=O)NCCO)cc1)CC2 | < 800

Structure (SMILES) | IC50 [nM]
CC(=O)Nc1nc2c(s1)-c1c(cnn1-c1cccc(C(F)(F)F)c1)CC2 | < 800
CC(=O)Nc1nc2c(s1)-c1c(cnn1-c1ccc(C(=O)NC3CCN(C)CC3)cc1)CC2 | < 800
CC(=O)Nc1nc2c(s1)-c1c(cnn1-c1ccc(C(=O)N[C@H](CCC(=O)O)C(N)=O)cc1Cl)CC2 | < 800
CC(=O)Nc1nc2c(s1)-c1c(cnn1-c1ccc(C(=O)N3CCN(CCO)CC3)cc1)CC2 | < 800
CC(=O)Nc1nc2c(s1)-c1c(cnn1-c1ccc(C(=O)NCCCCCCNC(=O)Cc3ccccc3)cc1)CC2 | < 800
CN(C)CCNC(=O)Nc1nc2c(s1)-c1c(cnn1-c1ccccc1Cl)C2 | < 800
CC(=O)Nc1nc2c(s1)-c1nc(N3CCCC(C)(C)C3)ncc1CC2 | < 800
CC(=O)Nc1nc2c(s1)-c1c(cnn1-c1ccc(C(=O)N[C@@H](CCC(=O)O)C(N)=O)cc1Cl)CC2 | < 800
C#CCNC(=O)Cc1ccc(-n2ncc3c2-c2sc(NC(C)=O)nc2CC3)cc1 | < 800
CC(=O)Nc1nc2c(s1)-c1c(cnn1-c1ccc(C(=O)N3CCN(c4ccncc4)CC3)cc1)CC2 | < 800
CC(=O)Nc1nc2c(s1)-c1c(cnn1-c1ccc(C(=O)N3CCCC(CO)C3)cc1)CC2 (centres undefined) | < 800
CC(=O)Nc1nc2c(s1)-c1c(cnn1-c1ccc(C(=O)NC(C)(C)CN3CCOCC3)cc1)CC2 | < 800
CC(=O)Nc1nc2c(s1)-c1c(c(-c3ccccn3)nn1-c1ccccc1C)CC2 | < 800
CC(=O)Nc1nc2c(s1)-c1c(cnn1-c1ccc(C(=O)NCc3nccn3C)cc1)CC2 | < 800
CC(=O)Nc1nc2c(s1)-c1nc(-c3ccc(C(=O)N(C)C)cc3)ncc1CC2 | < 800
CC(=O)Nc1nc2c(s1)-c1c(cnn1-c1ccc(CC(=O)N(C)C)cc1)CC2 | < 800
CC(=O)Nc1nc2c(s1)-c1c(cnn1-c1ccccc1Br)C2 | < 800
CC(=O)Nc1nc2c(s1)-c1c(cnn1-c1ccccc1Cl)C2 | < 800
CC(=O)Nc1nc2c(s1)-c1c(cnn1C)CC2 | < 800
CC(=O)Nc1nc2c(s1)-c1c(cnn1-c1ccc(C(=O)N[C@H](C(N)=O)[C@@H](C)O)cc1Cl)CC2 | < 800
CC(=O)Nc1nc2c(s1)-c1nc(N3CCCC(CNC(=O)OC(C)(C)C)C3)ncc1CC2 (centres undefined) | < 800
CC(=O)Nc1nc2c(s1)-c1c(cnn1-c1ccc(C(=O)N[C@H]3CC[C@@H](N4C[C@@H](C)O[C@@H](C)C4)CC3)cc1)CC2 | < 800
CC(=O)Nc1nc2c(s1)-c1nc(-c3ccccc3C)ncc1CC2 | < 800
CC(=O)Nc1nc2c(s1)-c1c(c(C(C)C)nn1-c1ccccc1Cl)CC2 | < 800
CC(=O)Nc1nc2c(s1)-c1nc(Cc3ccccc3)ncc1CC2 | < 800

Structure (SMILES) | IC50 [nM]
CC(=O)Nc1nc2c(s1)-c1c(cnn1-c1ccc(C(=O)N3CCC(CO)CC3)cc1)CC2 | < 800
CC(=O)Nc1nc2c(s1)-c1c(cnn1-c1ccccc1Cl)CC2 | < 800
CC(=O)Nc1nc2c(s1)-c1c(cnn1-c1ccc(C(=O)NCC3CC3)cc1)CC2 | < 800
CC(=O)Nc1nc2c(s1)-c1c(cnn1-c1ccc(CC(=O)NCC#Cc3ccncc3)cc1)CC2 | < 800
COC(=O)c1nn(-c2c(Cl)cccc2Cl)c2c1CCc1nc(NC(C)=O)sc1-2 | < 800
CC(=O)Nc1nc2c(s1)-c1nc(N3CCCCC3)ncc1CC2 | < 800
CC(=O)Nc1nc2c(s1)-c1c(c(-c3ccco3)nn1-c1ccccc1Br)CC2 | < 800
CS(=O)(=O)c1cccc(Nc2nc3c(s2)-c2c(cnn2-c2ccccc2)CC3)c1 | < 800
COc1ccccc1-c1ncc2c(n1)-c1sc(NC(N)=O)nc1CC2 | < 800
COc1ccc(-n2ncc3c2-c2sc(NC(C)=O)nc2C3)cc1 | < 800
CC(=O)Nc1nc2c(s1)-c1cc([N+](=O)[O-])ccc1CC2 | < 800
CC(=O)Nc1nc2c(s1)-c1c(c(-c3ccccn3)nn1-c1ccccc1Br)CC2 | < 800
CC(=O)Nc1nc2c(s1)-c1c(cnn1-c1ccc(C(=O)N[C@@H](CCCNC(=N)N)C(N)=O)cc1Cl)CC2 | < 800
COC(=O)c1nn(-c2ccccc2F)c2c1CCc1nc(NC(C)=O)sc1-2 | < 800
CN(C)CCCC(=O)Nc1nc2c(s1)-c1c(cnn1-c1ccccc1)CC2 | < 800
CC(=O)Nc1nc2c(s1)-c1c(cnn1-c1ccc(C(=O)NCc3ccccn3)cc1)CC2 | < 800
CC(=O)Nc1nc2c(s1)-c1c(cnn1-c1ccc(C(=O)NCCN3CCOCC3)cc1)CC2 | < 800
COc1cccc(-n2ncc3c2-c2sc(NC(C)=O)nc2CC3)c1 | < 800
Nc1ncc2c(n1)-c1sc(N)nc1CC2 | < 800
COC(=O)c1nn(-c2ccccc2C)c2c1CCc1nc(NC(C)=O)sc1-2 | < 800
CC(=O)Nc1nc2c(s1)-c1nn(-c3ccccc3Cl)c(-c3ccco3)c1CC2 | < 800
CC(=O)Nc1nc2c(s1)-c1c(cnn1-c1ccccc1)C2 | < 800
CC(=O)Nc1nc2c(s1)-c1c(c(-c3ccco3)nn1-c1ccc(C(=O)NC3CCN(C)CC3)cc1Cl)CC2 | < 800
O=C(CCN1CCCCC1)Nc1nc2c(s1)-c1c(cnn1-c1ccccc1)CC2 | < 800
